Results taken from PMC3269340, “Pharmacokinetics of memantine in rats and mice” (PLoS Currents, 2012).
Read-outs that look alike come from different tables or passages of the source.

Assay: Pharmacokinetics in rats after single iv, po or sc dose (plasma and brain)
Format: in vivo, Sprague-Dawley rats
Details: for half-life / AUC(0-inf) / Cmax: plasma
Description: Sprague Dawley (SD) rats (138 adult males), and C57Bl/6 mice (140 adult males), were obtained (Hilltop Laboratories, Scottsdale, PA); 123 per species were used in the study and the remainder provided blank matrix. Animals were individually identified by tail markings and were acclimated to the study environment for 16-21 days prior to dose administration. Animals were individually housed in suspended wire caging, and were kept on a 12h/12h light/dark cycle except when interrupted for study procedures. Average room temperature was regulated in the range 18 to 29°C, average relative humidity of 30-70%, and an average daily airflow >10 fresh air changes/h. Animals were fed LabDiet^Ò Certified Rodent Diet 5002 Meal food ad libitum, except during fasting prior to dose administration, and had access to water ad libitum.
[…] […] The concentration of memantine for the same dose level administered to mice was 0.2 mg eq./mL, and the dose volume was 5 mL/kg. The concentration of memantine in the 10mg eq./kg po and sc solutions was 5 mg eq./mL and the dose volume was 2 mL/kg for both rats and mice.
Details of the dose administration, body weights, clinical observations, plasma and brain sample collection and preparation are not shown in this report but are available upon request. Blood (for preparation of plasma) and brain samples were collected at 0.08, 0.25, 0.5, 1, 2, 4, 8, and 24h post-dose.
Since all time points were terminal, mean memantine concentrations per time point were used to calculate the composite PK parameters by non-compartmental analysis using WinNonlin program, version 5.2 (Pharsight Corp., Mountain View, California). A model was selected based on the vascular (iv bolus) or extravascular (po or sc) routes of administration. For the iv route, plasma concentration at time zero was back extrapolated from the first two observed post dose plasma concentrations. For the po and sc routes, concentration at time zero was assumed to be zero. Plasma and tissue concentrations below the limit of quantitation were treated as absent samples for the purpose of calculating the mean plasma concentration values or for calculating PK parameters.
The area under the plasma concentration versus time curve (AUC) was calculated using the linear trapezoidal method (linear interpolation). When appropriate, the terminal elimination phase of the PK profile was estimated based on the best fit (r^2) using at least the last three observed concentrations. PK parameters describing the systemic exposure of memantine in plasma and brain were estimated from observed (rather than predicted) plasma/brain concentrations, the dosing regimen, the AUC, and the terminal elimination phase rate constant (kel) for each group. The portion of the AUC from the last measurable concentration to infinity was estimated from the equation Ct/kel, where Ct represents the last measurable concentration. The extrapolated portion of the AUC was used for the determination of AUC0-∞. The percent bioavailability (%F) was calculated by dividing the dose normalized extravascular plasma AUC0-∞ by the dose normalized iv plasma AUC0-∞ times 100. The bioavailability calculations assumed concentrations were in the linear range.
Concentrations of memantine in rat and mouse plasma and brain were determined using an LC-MS/MS assay developed at ABC Laboratories.

[1] = rat brain, po dose increase from 1.22 to 10 mg/kg
[2] = rat plasma, po dose increase from 1.22 to 10 mg/kg

In the case of `CC12CC3CC(C)(C1)CC(N)(C3)C2` [memantine], the half-life (male, Sprague-Dawley, rat, iv, 1 mg/kg, rat, printed under 1 mg/kg (iv), cross-species summary, read-out: t 1/2 (converted)) is reported as 4 h, the AUC(0-inf) (male, Sprague-Dawley, rat, iv, 1.22 mg/kg, rat plasma, IV 1.22 mg eq./kg, read-out: AUC(0-∞)) is reported as 1.64 µM·h and the half-life (male, Sprague-Dawley, rat, iv, 1.22 mg/kg, rat plasma, IV 1.22 mg eq./kg, read-out: Half-life (t½) (converted)) is reported as 1.9 h. It also gave an AUC(0-inf) (male, Sprague-Dawley, rat, po, 1 mg/kg, rat, dose 1 mg/kg, single dose in solution (oral values of Table 1), read-out: AUC inf) of 0.6 µM·h, a Cmax (male, Sprague-Dawley, rat, po, 1 mg/kg, rat, dose 1 mg/kg, single dose in solution, read-out: C max) of 100 nM and an AUC(0-inf) (male, Sprague-Dawley, rat, po, 1.22 mg/kg, rat plasma, PO 1.22 mg eq./kg, read-out: AUC(0-∞)) of 0.594 µM·h. The half-life (male, Sprague-Dawley, rat, po, 1.22 mg/kg, rat plasma, PO 1.22 mg eq./kg, read-out: Half-life (t½) (converted)) was 2.23 h, the Cmax (male, Sprague-Dawley, rat, po, 1.22 mg/kg, rat plasma, PO 1.22 mg eq./kg, read-out: Observed Cmax) was 109 nM and the AUC(0-inf) (male, Sprague-Dawley, rat, po, 10 mg/kg, rat plasma, PO 10.0 mg eq./kg, read-out: AUC(0-∞)) was 11.4 µM·h. It also gave a half-life (male, Sprague-Dawley, rat, po, 10 mg/kg, rat plasma, PO 10.0 mg eq./kg, read-out: Half-life (t½) (converted)) of 3.92 h, a Cmax (male, Sprague-Dawley, rat, po, 10 mg/kg, rat plasma, PO 10.0 mg eq./kg, read-out: Observed Cmax) of 3700 nM and an AUC(0-inf) (male, Sprague-Dawley, rat, po, 10 mg/kg, rat, dose 10 mg/kg, single dose in solution (oral values of Table 1), read-out: AUC inf) of 11.4 µM·h. The Cmax (male, Sprague-Dawley, rat, po, 10 mg/kg, rat, dose 10 mg/kg, single dose in solution, read-out: C max) was 3700 nM, the AUC(0-inf) (male, Sprague-Dawley, rat, sc, 1 mg/kg, rat plasma, SC 1.0 mg eq./kg, read-out: AUC(0-∞)) was 1.69 µM·h and the half-life (male, Sprague-Dawley, rat, sc, 1 mg/kg, rat plasma, SC 1.0 mg eq./kg, read-out: Half-life (t½) (converted)) was 1.81 h. The Cmax (male, Sprague-Dawley, rat, sc, 1 mg/kg, rat plasma, SC 1.0 mg eq./kg, read-out: Observed Cmax) was 985 nM, the AUC(0-inf) (male, Sprague-Dawley, rat, sc, 10 mg/kg, rat plasma, SC 10.0 mg eq./kg, read-out: AUC(0-∞)) was 25.8 µM·h and the half-life (male, Sprague-Dawley, rat, sc, 10 mg/kg, rat plasma, SC 10.0 mg eq./kg, read-out: Half-life (t½) (converted)) was 2.59 h. For the same compound, the Cmax (male, Sprague-Dawley, rat, sc, 10 mg/kg, rat plasma, SC 10.0 mg eq./kg, read-out: Observed Cmax) was 6190 nM, the Tmax (male, Sprague-Dawley, subcutaneous, rat plasma, po and sc, all dose levels, read-out: Tmax after extravascular administration) was 0.5 to 1 h and the Cmax/Cmin ratios (rat) was greater than 100. The “total systemic clearance, times higher than GFR” value (rat) was ~ 13 fold, the AUCnorm (rat brain, IV 1.22 mg eq./kg) was 39040 (nM hr/kg) /(kg/mg) and the “Observed CmaxNorm” value (rat brain, IV 1.22 mg eq./kg) was 9003 nM/ (mg/kg). The AUCnorm (rat brain, PO 1.22 mg eq./kg) was 17310 (nM hr/kg) /(kg/mg), the “Observed CmaxNorm” value (rat brain, PO 1.22 mg eq./kg) was 1775 nM/ (mg/kg) and the AUCnorm (rat brain, PO 10.0 mg eq./kg) was 25620 (nM hr/kg) /(kg/mg). For the same compound, the “Observed CmaxNorm” value (rat brain, PO 10.0 mg eq./kg) was 2543 nM/ (mg/kg), the AUCnorm (rat brain, SC 1.0 mg eq./kg) was 52980 (nM hr/kg) /(kg/mg) and the “Observed CmaxNorm” value (rat brain, SC 1.0 mg eq./kg) was 10620 nM/ (mg/kg). The AUCnorm (rat brain, SC 10.0 mg eq./kg) was 44160 (nM hr/kg) /(kg/mg), the “Observed CmaxNorm” value (rat brain, SC 10.0 mg eq./kg) was 7544 nM/ (mg/kg) and the “AUC0-∞ increase, fold more than dose proportional” value [1] was 1.5 fold. The “Cmax increase, fold more than dose proportional” value [1] was ~ 1.5 fold, the “Cmax and AUC0-∞ increase relative to dose proportional” value (rat brain, sc dose increase from 1 to 10 mg/kg, slightly less than dose proportional) was 0.7-0.8 fold and the AUCnorm (rat plasma, IV 1.22 mg eq./kg) was 1342 (nM hr/kg) /(kg/mg). For the same compound, the AUCnorm (rat plasma, PO 1.22 mg eq./kg) was 486.9 (nM hr/kg) /(kg/mg), the “Observed CmaxNorm” value (rat plasma, PO 1.22 mg eq./kg) was 89.07 nM/ (mg/kg) and the AUCnorm (rat plasma, PO 10.0 mg eq./kg) was 1139 (nM hr/kg) /(kg/mg). The “Observed CmaxNorm” value (rat plasma, PO 10.0 mg eq./kg) was 369.6 nM/ (mg/kg), the AUCnorm (rat plasma, SC 1.0 mg eq./kg) was 1686 (nM hr/kg) /(kg/mg) and the “Observed CmaxNorm” value (rat plasma, SC 1.0 mg eq./kg) was 985.0 nM/ (mg/kg). For the same compound, the AUCnorm (rat plasma, SC 10.0 mg eq./kg) was 2581 (nM hr/kg) /(kg/mg), the “Observed CmaxNorm” value (rat plasma, SC 10.0 mg eq./kg) was 618.9 nM/ (mg/kg) and the “AUC0-∞ increase, fold more than dose proportional” value [2] was 2.3 fold. For the same compound, the “Cmax increase, fold more than dose proportional” value [2] was ~ 4 fold, the “AUC0-∞ increase, fold more than dose proportional” value (rat plasma, sc dose increase from 1 to 10 mg/kg) was 1.5 fold and the elimination half-life (rat, all dose routes and levels (plasma; b142 also brain)) was less than 4 h. For the same compound, the “C max/ C min ratio” value (rat, dose 10 mg/kg) was 123, the “delay in Tmax for brain compared to plasma” value (rat, same dose level and route) was 0.25 to 1.5 h and the “Contribution of active transport to clearance” value (rodent (rat)) was greater than 100%. The “brain elimination half-lives after extravascular administrations” value (summary for rats and mice, rat) was 2.28 – 3.8.
